Tests used:
human mGluR3 (hmGluR3) = target: T1, human mGluR3 (hmGluR3) (Homo sapiens, UniProt Q14832); experiment: Human mGluR3 positive allosteric modulator evaluation using Ca++ functional assay; format: cell-based; conditions: hmGluR3 transiently over-expressed in HEK-293 cells; stimulated by EC50 glutamate concentration; intracellular Ca2+ (Fluo4AM, FLIPR Tetra)
T1 construct: expressed in transfected cells; host or cells: HEK-293 cells, transient co-transfection by electroporation
Procedure, shortened: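 Calcium flux (Fluo4, ex 485/em 525 nm) recorded first 10 min with compound alone, then 3 min after an EC50 glutamate challenge, giving agonist and PAM EC50 from 20-concentration sigmoidal fits. Receptor was transiently co-transfected in HEK-293 with chimeric G protein and glutamate transporters.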

striatal primary neurons = experiment: NMDA-induced neurotoxicity assay on striatal primary neurons (MTT test); format: cell-based, mouse; conditions: 24 hours
Description: Primary mouse neurons were incubated with vehicle or NMDA (60 μM)+vehicle or example 63 or LY379268 (mixed mGluR2/3 agonist used as positive control) for 24 hours. Tests were performed in triplicate. Neuron viability was measured using a MTT test.

cortical primary neurons = experiment: NMDA-induced neurotoxicity assay on cortical primary neurons (MTT test); format: cell-based, mouse; conditions: 24 hours
Description: Primary mouse neurons were incubated with vehicle or NMDA (60 μM)+vehicle or example 207 or LY379268 (mixed mGluR2/3 agonist used as positive control) for 24 hours. Tests were performed in triplicate. Neuron viability was measured using a MTT test.

[1] = alone, in absence of NMDA challenge, 30 nM to 30 μM

T1 sequence (Q14832 23-879): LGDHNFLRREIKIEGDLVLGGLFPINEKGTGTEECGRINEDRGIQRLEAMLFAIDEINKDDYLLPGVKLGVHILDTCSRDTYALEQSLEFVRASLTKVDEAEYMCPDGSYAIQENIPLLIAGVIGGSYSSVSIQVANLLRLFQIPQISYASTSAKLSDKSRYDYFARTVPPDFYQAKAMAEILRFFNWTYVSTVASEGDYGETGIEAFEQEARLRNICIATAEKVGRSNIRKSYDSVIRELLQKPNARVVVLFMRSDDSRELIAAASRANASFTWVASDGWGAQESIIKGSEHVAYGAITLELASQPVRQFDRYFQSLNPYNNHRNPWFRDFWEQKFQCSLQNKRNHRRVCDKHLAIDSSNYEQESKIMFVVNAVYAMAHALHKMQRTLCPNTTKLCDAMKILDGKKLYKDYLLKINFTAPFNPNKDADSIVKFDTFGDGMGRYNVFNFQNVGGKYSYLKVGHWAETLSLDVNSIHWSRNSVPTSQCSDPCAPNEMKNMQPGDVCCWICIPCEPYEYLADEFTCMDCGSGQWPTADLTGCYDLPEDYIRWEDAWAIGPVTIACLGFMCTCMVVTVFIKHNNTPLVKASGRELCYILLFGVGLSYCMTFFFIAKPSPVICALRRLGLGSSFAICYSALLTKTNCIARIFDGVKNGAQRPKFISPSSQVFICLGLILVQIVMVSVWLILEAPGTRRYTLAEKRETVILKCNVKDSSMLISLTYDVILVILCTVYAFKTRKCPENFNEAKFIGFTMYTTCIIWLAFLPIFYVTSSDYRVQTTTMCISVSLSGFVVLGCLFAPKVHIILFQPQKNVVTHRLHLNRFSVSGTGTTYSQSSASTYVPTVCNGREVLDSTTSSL

| EC50 (human mGluR3 (hmGluR3)) [nM] | melting point [°C] | Compound | further results |
| --- | --- | --- | --- |
| < 100 | 148 to 156 | CN1C(=O)c2cccn2-c2cc(-c3ccc(F)cn3)ccc2C12CC2 [Example 63, 5-Methyl-9-(5-fluoropyridin-2-yl)-spiro[benzo[f]pyrrolo[1,2-a][1,4]diazepine-6,1′-cyclopropan]-4(5H)-one] | toxicity induced by NMDA (neuroprotection), striatal primary neurons (striatal primary neurons; NMDA 60 μM, effect tending to disappear at 30 μM): reduces in a dose-dependent manner the toxicity induced by NMDA up to 10 μM; toxicity on striatal primary neuron viability (striatal primary neurons; [1]): no toxicity |
| < 100 | > 250 | [2H]C([2H])([2H])N1C(=O)c2cc(-c3nnco3)cn2-c2cc(-c3ccc(F)nc3)ccc2C12CC2 [Example 188] |  |
| < 100 | > 250 | CN(C)c1ccc(-c2ccc3c(c2)-n2cc(-c4nnco4)cc2C(=O)N(C)C32CC2)cn1 [Example 190] |  |
| < 100 | > 250 | CN1C(=O)c2cc(-c3nnco3)cn2-c2cc(-c3cccc(C#N)c3)ccc2C12CC2 [Example 192] |  |
| 100 to 1000 | > 250 | CN1C(=O)c2cc(-c3nnco3)cn2-c2cc(-c3cccnn3)ccc2C12CC2 [Example 193] |  |
| < 100 | 144 to 154 | Cc1ccc(-c2ccc3c(c2)-n2cc(CO)cc2C(=O)N(C)C32CC2)cn1 [Example 202] |  |
| < 100 | 71 to 80 | COCc1cc2n(c1)-c1cc(-c3ccc(F)nc3)ccc1C1(CC1)N(C)C2=O [Example 207] | toxicity induced by NMDA (neuroprotection), cortical primary neurons (cortical primary neurons; NMDA 60 μM, effect tending to disappear at higher concentrations): reduces in a dose-dependent manner the toxicity induced by NMDA up to 1 μM; toxicity on cortical primary neuron viability (cortical primary neurons; [1]): no toxicity |
| > 1000 | 127 to 130 | CN1C(=O)c2cccn2-c2ccccc2C1(C)C [Example 221, 5,6,6-Trimethyl-5,6-dihydro-benzo[f]pyrrolo[1,2-a][1,4]diazepin-4-one] |  |
|  |  | N[C@@]1(C(=O)O)CO[C@H]2[C@H](C(=O)O)[C@H]21 [LY379268] | NMDA-induced toxicity, cortical primary neurons (cortical primary neurons; at 1 μM, NMDA 60 μM): decreases NMDA-induced toxicity; toxicity alone, cortical primary neurons (cortical primary neurons; reference alone): no toxicity alone; NMDA-induced toxicity, striatal primary neurons (striatal primary neurons; at 1 μM, NMDA 60 μM): decreases NMDA-induced toxicity; toxicity alone, striatal primary neurons (striatal primary neurons; reference alone): no toxicity alone |
|  |  | CN[C@H](CC(=O)O)C(=O)O [NMDA, N-methyl-D-aspartate] | reduction of the neuron viability, cortical primary neurons (cortical primary neurons; NMDA 60 μM + vehicle): ~50%; reduction of the neuron viability, striatal primary neurons (striatal primary neurons; NMDA 60 μM + vehicle): ~70% |
